Measured values taken from article PMC5218480 (PLoS ONE, 2017).

System: MV-4-11 cells
Assay: Gene expression microarray analysis (Affymetrix PrimeView) and GSEA
Format: cell-based, human
Design: RFU PODN (11730768_x_at) / Fold change /veh PODN (11730768_x_at) / RFU LINC00158 (11744669_a_at) / Fold change /veh LINC00158 (11744669_a_at) / RFU DUSP10 (11751237_a_at) / Fold change /veh DUSP10 (11751237_a_at) / RFU ID3 (11757404_x_at) / Fold change /veh ID3 (11757404_x_at) / RFU PLEKHG5 (11737974_s_at) / Fold change /veh PLEKHG5 (11737974_s_at) / RFU LRRC4B (11730491_at) / Fold change /veh LRRC4B (11730491_at) / RFU GIMAP4 (11747438_a_at) / Fold change /veh GIMAP4 (11747438_a_at) / RFU KRT8 (11758183_x_at) / Fold change /veh KRT8 (11758183_x_at) / RFU CNN1 (11734310_a_at) / Fold change /veh CNN1 (11734310_a_at) / RFU VPS37D (11726825_at) / Fold change /veh VPS37D (11726825_at) / RFU C10orf10 (11716522_x_at) / Fold change /veh C10orf10 (11716522_x_at) / RFU KIR2DL2 /// KIR2DL4 /// KIR2DL5A /// KIR2DL5B /// KIR2DS1 /// KIR2DS2 /// KIR2DS3 /// KIR2DS4 /// KIR3DL3 /// KIR3DL3 /// KIR3DS1 (11738374_at) / Fold change /veh KIR2DL2 /// KIR2DL4 /// KIR2DL5A /// KIR2DL5B /// KIR2DS1 /// KIR2DS2 /// KIR2DS3 /// KIR2DS4 /// KIR3DL3 /// KIR3DL3 /// KIR3DS1 (11738374_at) / RFU C1QL1 (11718748_at) / Fold change /veh C1QL1 (11718748_at) / RFU TMPRSS4 (11747572_a_at) / Fold change /veh TMPRSS4 (11747572_a_at) / RFU HAMP (11756126_x_at) / Fold change /veh HAMP (11756126_x_at) / RFU RNFT2 (11725882_a_at) / Fold change /veh RNFT2 (11725882_a_at) / RFU NR4A2 (11747474_a_at) / Fold change /veh NR4A2 (11747474_a_at) / RFU ABCC12 (11746883_a_at) / Fold change /veh ABCC12 (11746883_a_at) / RFU TMEM136 (11760407_x_at) / Fold change /veh TMEM136 (11760407_x_at) / RFU CLDN22 /// WWC2 (11732394_at) / Fold change /veh CLDN22 /// WWC2 (11732394_at) / RFU HLA-DPB1 (11760878_x_at) / Fold change /veh HLA-DPB1 (11760878_x_at) / RFU SPINT1 (11716480_a_at) / Fold change /veh SPINT1 (11716480_a_at) / RFU GAP43 (11754022_s_at) / Fold change /veh GAP43 (11754022_s_at) / RFU A4GNT (11735810_at) / Fold change /veh A4GNT (11735810_at) / RFU PRB3 (11715151_x_at) / Fold change /veh PRB3 (11715151_x_at) / RFU TUBB4B (11761932_at) / Fold change /veh TUBB4B (11761932_at) / RFU CAPN14 (11732068_a_at) / Fold change /veh CAPN14 (11732068_a_at) / RFU TMCC2 (11721928_a_at) / Fold change /veh TMCC2 (11721928_a_at) / RFU IRGQ (11745062_a_at) / Fold change /veh IRGQ (11745062_a_at) / RFU FAM174B (11720279_a_at) / Fold change /veh FAM174B (11720279_a_at) / RFU TMPRSS4 (11748680_a_at) / Fold change /veh TMPRSS4 (11748680_a_at) / RFU FAM212B (11763350_a_at) / Fold change /veh FAM212B (11763350_a_at) / RFU PLEKHG5 (11743358_a_at) / Fold change /veh PLEKHG5 (11743358_a_at) / RFU ZSCAN30 (11745921_a_at) / Fold change /veh ZSCAN30 (11745921_a_at) / RFU CMKLR1 (11741424_a_at) / Fold change /veh CMKLR1 (11741424_a_at) / RFU LOC101060620 /// MAPK8IP1 (11723275_at) / Fold change /veh LOC101060620 /// MAPK8IP1 (11723275_at) / RFU SPTSSB (11747773_x_at) / Fold change /veh SPTSSB (11747773_x_at) / RFU PRSS12 (11739890_at) / Fold change /veh PRSS12 (11739890_at) / RFU BIN1 (11741810_x_at) / Fold change /veh BIN1 (11741810_x_at) / RFU WNT11 (11732464_a_at) / Fold change /veh WNT11 (11732464_a_at) / RFU C10orf10 (11716521_a_at) / Fold change /veh C10orf10 (11716521_a_at) / RFU C5orf56 (11738089_at) / Fold change /veh C5orf56 (11738089_at) / RFU CYB561 (11721691_x_at) / Fold change /veh CYB561 (11721691_x_at) / RFU ANKRD19P (11752326_a_at) / Fold change /veh ANKRD19P (11752326_a_at) / RFU OR2T12 /// OR2T33 /// OR2T8 (11738714_s_at) / Fold change /veh OR2T12 /// OR2T33 /// OR2T8 (11738714_s_at) / RFU VCAN (11748164_a_at) / Fold change /veh VCAN (11748164_a_at) / RFU JSRP1 (11732532_at) / Fold change /veh JSRP1 (11732532_at) / RFU KRTAP10-11 (11738290_x_at) / Fold change /veh KRTAP10-11 (11738290_x_at) / RFU MYO3A (11730013_a_at) / Fold change /veh MYO3A (11730013_a_at) / RFU EBF3 (11725865_a_at) / Fold change /veh EBF3 (11725865_a_at) / RFU CAMK2N1 (11719241_x_at) / Fold change /veh CAMK2N1 (11719241_x_at) / RFU C5orf56 (11738088_a_at) / Fold change /veh C5orf56 (11738088_a_at) / RFU OLFML3 (11715873_a_at) / Fold change /veh OLFML3 (11715873_a_at) / RFU LOC100653217 /// NTM (11731650_a_at) / Fold change /veh LOC100653217 /// NTM (11731650_a_at) / RFU MAPK11 (11762145_a_at) / Fold change /veh MAPK11 (11762145_a_at) / RFU FIZ1 (11724087_x_at) / Fold change /veh FIZ1 (11724087_x_at) / RFU OASL (11726364_x_at) / Fold change /veh OASL (11726364_x_at) / RFU SOX15 (11748057_x_at) / Fold change /veh SOX15 (11748057_x_at) / RFU CD79A (11719716_a_at) / Fold change /veh CD79A (11719716_a_at) / RFU HIST1H1D (11736915_at) / Fold change /veh HIST1H1D (11736915_at) / RFU CASKIN2 (11723855_a_at) / Fold change /veh CASKIN2 (11723855_a_at) / RFU LOC730098 (11760151_x_at) / Fold change /veh LOC730098 (11760151_x_at) / RFU OR4N2 (11742367_at) / Fold change /veh OR4N2 (11742367_at) / RFU PRRT2 (11749266_a_at) / Fold change /veh PRRT2 (11749266_a_at) / RFU SNX32 (11753110_a_at) / Fold change /veh SNX32 (11753110_a_at) / RFU CDHR5 (11726645_a_at) / Fold change /veh CDHR5 (11726645_a_at) / RFU RCAN1 (11760418_a_at) / Fold change /veh RCAN1 (11760418_a_at) / RFU FAM167A (11723789_a_at) / Fold change /veh FAM167A (11723789_a_at) / RFU FAM26E (11764081_at) / Fold change /veh FAM26E (11764081_at) / RFU ISYNA1 (11749810_s_at) / Fold change /veh ISYNA1 (11749810_s_at) / RFU ACY1 (11761880_at) / Fold change /veh ACY1 (11761880_at) / RFU 11764098_at / Fold change /veh 11764098_at / RFU SAMD14 (11745864_x_at) / Fold change /veh SAMD14 (11745864_x_at) / RFU NPB (11741838_a_at) / Fold change /veh NPB (11741838_a_at) / RFU TMPRSS6 (11731388_a_at) / Fold change /veh TMPRSS6 (11731388_a_at) / RFU KRTAP10-2 (11738614_at) / Fold change /veh KRTAP10-2 (11738614_at) / RFU ARHGAP8 /// PRR5-ARHGAP8 (11727945_x_at) / Fold change /veh ARHGAP8 /// PRR5-ARHGAP8 (11727945_x_at) / RFU KRTAP5-7 /// NADSYN1 (11734609_at) / Fold change /veh KRTAP5-7 /// NADSYN1 (11734609_at) / RFU RASL12 (11751679_a_at) / Fold change /veh RASL12 (11751679_a_at) / RFU CDKN2B (11736163_a_at) / Fold change /veh CDKN2B (11736163_a_at) / RFU PRF1 (11729649_at) / Fold change /veh PRF1 (11729649_at) / RFU, ZNF638 /// ZNF638-IT1 / Fold change vs veh, ZNF638 /// ZNF638-IT1 / RFU, PANK3 / Fold change vs veh, PANK3 / RFU, SH3YL1 / Fold change vs veh, SH3YL1 / RFU, ZEB2 / Fold change vs veh, ZEB2 / RFU, NRIP1 / Fold change vs veh, NRIP1 / RFU, PTTG1IP / Fold change vs veh, PTTG1IP / RFU, CAPN2 / Fold change vs veh, CAPN2 / RFU, MED14 / Fold change vs veh, MED14 / RFU, SNORA58 / Fold change vs veh, SNORA58 / RFU, C1orf63 / Fold change vs veh, C1orf63 / RFU, LRRFIP1 / Fold change vs veh, LRRFIP1 / RFU, NDUFAF7 / Fold change vs veh, NDUFAF7 / RFU, SLC12A2 / Fold change vs veh, SLC12A2 / RFU, IBTK / Fold change vs veh, IBTK / RFU, ESF1 / Fold change vs veh, ESF1 / Fold change vs veh, TMEM50B / RFU, TAOK1 / Fold change vs veh, TAOK1 / RFU, ACBD3 / Fold change vs veh, ACBD3 / RFU, TMA16 / Fold change vs veh, TMA16 / RFU, RWDD3 / Fold change vs veh, RWDD3 / RFU, BCAT1 / Fold change vs veh, BCAT1 / RFU, EDEM3 / Fold change vs veh, EDEM3 / RFU, TMEM33 / Fold change vs veh, TMEM33 / RFU, WDR75 / Fold change vs veh, WDR75 / RFU, AHCTF1 / Fold change vs veh, AHCTF1 / RFU, TFRC / Fold change vs veh, TFRC / RFU, ZDHHC17 / Fold change vs veh, ZDHHC17 / RFU, NOM1 / Fold change vs veh, NOM1 / RFU, ARL8B / Fold change vs veh, ARL8B / RFU, ZBTB11 / Fold change vs veh, ZBTB11 / RFU, TAMM41 / Fold change vs veh, TAMM41 / RFU, KIAA1704 /// LOC100996395 / Fold change vs veh, KIAA1704 /// LOC100996395 / RFU, ING1 / Fold change vs veh, ING1 / RFU, TRMT61B / Fold change vs veh, TRMT61B / RFU, FUBP3 / Fold change vs veh, FUBP3 / RFU, TP53 / Fold change vs veh, TP53 / RFU, TNKS2 / Fold change vs veh, TNKS2 / RFU, ZFP14 / Fold change vs veh, ZFP14 / RFU, ACTR2 / Fold change vs veh, ACTR2 / RFU, PPP3R1 / Fold change vs veh, PPP3R1 / RFU, PIK3R1 / Fold change vs veh, PIK3R1 / RFU, HNRNPA1 / Fold change vs veh, HNRNPA1 / RFU, RNF170 / Fold change vs veh, RNF170 / RFU, ZNF28 / Fold change vs veh, ZNF28 / RFU, RNGTT / Fold change vs veh, RNGTT / RFU, OGT / Fold change vs veh, OGT / RFU, BRD1 / Fold change vs veh, BRD1 / RFU, MARS / Fold change vs veh, MARS / RFU, ZNF655 / Fold change vs veh, ZNF655 / RFU, FAHD1 / Fold change vs veh, FAHD1 / RFU, BDP1 / Fold change vs veh, BDP1 / RFU, LRRCC1 / Fold change vs veh, LRRCC1 / RFU, ARID1A / Fold change vs veh, ARID1A / RFU, ZNF146 / Fold change vs veh, ZNF146 / RFU, ZNF330 / Fold change vs veh, ZNF330 / RFU, GPN3 / Fold change vs veh, GPN3 / RFU, C9orf123 / Fold change vs veh, C9orf123 / RFU, N4BP2L2 / Fold change vs veh, N4BP2L2 / RFU, ARFIP1 / Fold change vs veh, ARFIP1 / RFU, FAM179B / Fold change vs veh, FAM179B / RFU, BCL10 / Fold change vs veh, BCL10 / RFU, UHRF1BP1L / Fold change vs veh, UHRF1BP1L / RFU, BET1 / Fold change vs veh, BET1 / RFU, CNOT2 / Fold change vs veh, CNOT2 / RFU, ZNF268 / Fold change vs veh, ZNF268 / Fold change vs veh, ZNF507 / RFU, DGCR2 / Fold change vs veh, DGCR2 / RFU, WDSUB1 / Fold change vs veh, WDSUB1 / Fold change vs veh, HSP90B1 /// MIR3652 / RFU, ADSS / Fold change vs veh, ADSS / RFU, GK / Fold change vs veh, GK / RFU, ZNF148 / Fold change vs veh, ZNF148 / RFU, TAF9 / Fold change vs veh, TAF9 / RFU, SLC1A5 / Fold change vs veh, SLC1A5 / RFU, SLMO2 / Fold change vs veh, SLMO2 / RFU, ABCC4 / Fold change vs veh, ABCC4 / RFU, LOC101060439 /// RAP1B / Fold change vs veh, LOC101060439 /// RAP1B / RFU, RFX7 / Fold change vs veh, RFX7 / RFU, GTPBP10 / Fold change vs veh, GTPBP10 / RFU, CNEP1R1 / Fold change vs veh, CNEP1R1 / RFU, BIVM-ERCC5 /// ERCC5 / Fold change vs veh, BIVM-ERCC5 /// ERCC5 / RFU, ILF3 / Fold change vs veh, ILF3 / RFU 11762660_at / Fold change /veh 11762660_at / RFU VCAN (11757783_s_at) / Fold change /veh VCAN (11757783_s_at) / RFU DDX43 (11728927_at) / Fold change /veh DDX43 (11728927_at) / RFU KRT8 (11758188_x_at) / Fold change /veh KRT8 (11758188_x_at) / RFU NKD1 (11759106_at) / Fold change /veh NKD1 (11759106_at) / RFU SRD5A1 (11742802_a_at) / Fold change /veh SRD5A1 (11742802_a_at) / RFU TPSAB1 /// TPSB2 (11721975_s_at) / Fold change /veh TPSAB1 /// TPSB2 (11721975_s_at) / RFU GSTM3 (11746129_a_at) / Fold change /veh GSTM3 (11746129_a_at) / RFU IL23R (11737362_x_at) / Fold change /veh IL23R (11737362_x_at) / RFU TMEM51 (11727254_a_at) / Fold change /veh TMEM51 (11727254_a_at) / RFU PIWIL2 (11732686_x_at) / Fold change /veh PIWIL2 (11732686_x_at) / RFU ORM1 (11744905_x_at) / Fold change /veh ORM1 (11744905_x_at) / RFU CCDC152 (11743942_at) / Fold change /veh CCDC152 (11743942_at) / RFU ECM1 (11717891_a_at) / Fold change /veh ECM1 (11717891_a_at) / RFU IL23R (11748794_a_at) / Fold change /veh IL23R (11748794_a_at) / RFU TNFAIP8L3 (11732012_x_at) / Fold change /veh TNFAIP8L3 (11732012_x_at) / RFU MBOAT4 (11741988_at) / Fold change /veh MBOAT4 (11741988_at) / RFU 11764193_at / Fold change /veh 11764193_at / RFU TMEM53 (11763286_at) / Fold change /veh TMEM53 (11763286_at) / RFU MAGEB2 (11727129_at) / Fold change /veh MAGEB2 (11727129_at) / RFU TMEM200A (11744735_a_at) / Fold change /veh TMEM200A (11744735_a_at) / RFU CCDC152 (11751479_a_at) / Fold change /veh CCDC152 (11751479_a_at) / RFU FAM211A (11726209_a_at) / Fold change /veh FAM211A (11726209_a_at) / RFU RGS16 (11746705_a_at) / Fold change /veh RGS16 (11746705_a_at) / RFU VCAN (11755009_s_at) / Fold change /veh VCAN (11755009_s_at) / RFU RHOB (11743442_s_at) / Fold change /veh RHOB (11743442_s_at) / RFU RGS16 (11720943_a_at) / Fold change /veh RGS16 (11720943_a_at) / RFU RGS16 (11720944_at) / Fold change /veh RGS16 (11720944_at) / RFU, VPS4B / Fold change vs veh, VPS4B / RFU, CREB1 / Fold change vs veh, CREB1 / RFU, DNAJC13 / Fold change vs veh, DNAJC13 / RFU, GNAQ / Fold change vs veh, GNAQ / RFU, CDK5R1 / Fold change vs veh, CDK5R1 / RFU, ZRANB3 / Fold change vs veh, ZRANB3 / RFU, CUL4A / Fold change vs veh, CUL4A / RFU, CCNY / Fold change vs veh, CCNY / RFU, UFL1 / Fold change vs veh, UFL1 / RFU, COG3 / Fold change vs veh, COG3 / RFU, DIAPH2 / Fold change vs veh, DIAPH2 / RFU, SKA2 / Fold change vs veh, SKA2 / RFU, AFF3 / Fold change vs veh, AFF3 / RFU, LMF1 / Fold change vs veh, LMF1 / RFU, IPO11 / Fold change vs veh, IPO11 / RFU, DFFB / Fold change vs veh, DFFB / RFU, FOXP1 / Fold change vs veh, FOXP1 / RFU, CARD8 / Fold change vs veh, CARD8 / RFU, STRN3 / Fold change vs veh, STRN3 / RFU, ADK / Fold change vs veh, ADK / RFU, RASSF2 / Fold change vs veh, RASSF2 / RFU, WIPF1 / Fold change vs veh, WIPF1 / RFU, LARP1B / Fold change vs veh, LARP1B / RFU, RASA1 / Fold change vs veh, RASA1 / RFU, RB1 / Fold change vs veh, RB1 / RFU, PPFIA1 / Fold change vs veh, PPFIA1 / RFU, MAT2A / Fold change vs veh, MAT2A / RFU, CCT5 / Fold change vs veh, CCT5 / RFU, WDR92 / Fold change vs veh, WDR92 / RFU, CUX1 / Fold change vs veh, CUX1 / RFU, TTC7A / Fold change vs veh, TTC7A / RFU, TMEM135 / Fold change vs veh, TMEM135 / RFU, DEPTOR / Fold change vs veh, DEPTOR / RFU, CPM / Fold change vs veh, CPM / RFU, DNAJB6 / Fold change vs veh, DNAJB6 / RFU, CACNA2D3 / Fold change vs veh, CACNA2D3 / RFU, DTX4 / Fold change vs veh, DTX4 / RFU, TFCP2 / Fold change vs veh, TFCP2 / RFU, GMCL1 /// GMCL1P1 / Fold change vs veh, GMCL1 /// GMCL1P1 / RFU, AEBP2 / Fold change vs veh, AEBP2 / RFU, SNHG1 /// SNORD22 /// SNORD25 /// SNORD26 /// SNORD27 /// SNORD28 /// SNORD29 /// SNORD31 / Fold change vs veh, SNHG1 /// SNORD22 /// SNORD25 /// SNORD26 /// SNORD27 /// SNORD28 /// SNORD29 /// SNORD31 / Fold change (Aza/veh), C12orf56 (ProbeSet 11735607_a_at) / Fold change (ACY-1035/veh), C12orf56 (ProbeSet 11735607_a_at) / Fold change (Aza/veh), FGFR1OP (ProbeSet 11751329_s_at) / Fold change (ACY-1035/veh), FGFR1OP (ProbeSet 11751329_s_at) / Fold change (Aza/veh), VPS36 (ProbeSet 11739960_a_at) / Fold change (ACY-1035/veh), VPS36 (ProbeSet 11739960_a_at) / RFU SYPL1 (11715823_x_at) / Fold change /veh SYPL1 (11715823_x_at) / RFU IGFBP7 (11715501_s_at) / Fold change /veh IGFBP7 (11715501_s_at) / RFU REEP3 (11722064_at) / Fold change /veh REEP3 (11722064_at) / RFU IGLL1 (11728026_x_at) / Fold change /veh IGLL1 (11728026_x_at): dose or concentration left out as unconfirmed
Details: MV-4-11 cells, 48 hours

`Nc1ccc(-c2cccs2)cc1NC(=O)c1ccc2c(c1)cc(C1CC1)n2CCN1CCOCC1` [ACY-1035] was tested, and the “RFU OASL (11726364_x_at)” value was 41.33 RFU.
